Tests used:
[1] = Solubility test in water (37° C.), Compound A concentration of filtrate by HPLC; assay type: physicochemical
Method: By using, as test samples, the β-type crystalline material obtained in Example 1 and the α-type crystalline material obtained in Comparative Example 1, a water (37° C.) solubility test was carried out. The test sample (about 10 mg) was added to 100 mL of water (37° C.), and the mixture was stirred at 1000 rpm. The mixture was sampled at some points of time, and each sample taken out was filtered through a membrane filter (Millex LG-13 manufactured by Millipore Corp, Japan). The compound A concentration of each filtrate was determined with high-performance liquid chromatography (HPLC). The measurement conditions were as follows:
HPLC: LC-10vp series (manufactured by Shimadzu Corp. Japan)
System controller: CBM-10A
Measurement wavelength: 246 nm
Column: Mightysil RP-18 GP 4.6×250 mm (manufactured by Kanto Chemical Co., Inc., Japan)
Column temperature: Fixed temperature at around 40° C.
Mobile phase: Mixture of methanol and water (55:45)
Amount of influent: 10 μL
Internal standard solution: Acetonitrile solution of propyl paraoxybenzoate (conc.200 μg/mL)

[2] = Absorbability test: oral administration to cynomolgus monkeys, Compound B in blood plasma as indicator; assay type: in vivo
Method: The α-type crystalline material obtained in Comparative Example 1 or the β-type crystalline material obtained in Example 1 was suspended in a 1 wt. % aqueous solution of methyl cellulose. Each suspension was orally administered to a group of cynomolgus monkeys that had not been fed one overnight (5 mg/kg, n=5). The two samples were compared, in terms of the change of Compound B concentration of blood plasma and the area under the medicine concentration in blood plasma-time curve (AUC), to evaluate the difference in absorbability between the samples. The Compound B concentration of blood plasma derived from the blood sample was determined in the following manner.
By centrifugally separating the blood (1 mL) taken from a saphenous vein (4° C., 3000 rpm, 10 minutes) in the presence of heparin, blood plasma was obtained. To this blood plasma (100 μL), a methanol solution containing an internal standard substance (sodium 7-methyl-4(5H),10-dioxo-2H-1,2,3-triazolo [4,5-c][1]benzazepine) (100 ng/mL, 100 μL) and methanol (400 μL) were added, and the mixture was stirred and was then subjected to centrifugal separation (4° C., 10000 rpm, 5 minutes). Methanol (300 μL) was added again to the supernatant, and the mixture was centrifugally separated under the same conditions as the previous manner. […]
Fluorescence detection wavelengths: Ex 270 nm, Em 466 nm […]

| SMILES | solubility in solvents such as water ([1]; background statement from applicant's experiments, solvents such as water) | absorption into organisms ([2]; background statement, administered as it is) | water solubility compared with the α-type crystalline material ([1]; water 37° C.) | Compound B concentration of blood plasma compared with the α-type-crystalline-material-administered group ([2]; cynomolgus monkeys, fasted overnight, oral 5 mg/kg, suspension in 1 wt. % aqueous methyl cellulose, n=5, FIG. 6) |
| --- | --- | --- | --- | --- |
| COc1cc2[nH]c(=O)c3nn(C(OC(=O)OC(C)C)C(C)C)nc3c(=O)c2cc1OC (stereo not drawn) [α-type crystalline material, 2-(1-Isopropoxycarbonyloxy-2-methylpropyl)-7,8-dimethoxy-4(5H),10-dioxo-2H-1,2,3-triazolo[4,5-c][1]benzazepine] | sparingly soluble | cannot be easily absorbed | – | – |
| COc1cc2[nH]c(=O)c3nn(C(OC(=O)OC(C)C)C(C)C)nc3c(=O)c2cc1OC (stereo not drawn) [β-type crystalline material, 2-(1-Isopropoxycarbonyloxy-2-methylpropyl)-7,8-dimethoxy-4(5H),10-dioxo-2H-1,2,3-triazolo[4,5-c][1]benzazepine] | – | – | higher | higher values |

From US20070167432A1, “Tricyclic triazolobenzapine derivative produced as novel crystalline substance” (MEIJI SEILA KAISHA, LTD, priority 2003, published 2007)
